Data from patent publication US11680047B2, “Enhanced erythropoiesis and iron metabolism” (FibroGen, Inc., priority 2003, dated 2023).

What was measured:
transferrin receptor [1] = assay: Transferrin receptor expression by FACS (CD71-PE antibody) in HepG2 cells; type: cell-based; conditions: HepG2, 1 day
Procedure: (§1) The effect of compounds of the invention on transferrin receptor expression was examined as follows. Various cells (Hep3B, HepG2, HK-2) were incubated with compound A or compound B for 1 day. The cells were then analyzed for transferrin receptor expression by FACS analysis using CD71-PE antibody (Ancell, catalog no. 223-050).

transferrin receptor [2] = assay: Transferrin receptor expression by FACS (CD71-PE antibody) in Hep3B cells; type: cell-based; conditions: 1 day
Procedure: as §1

transferrin receptor [3] = assay: Transferrin receptor expression by FACS (CD71-PE antibody) in HK-2 cells; type: cell-based; conditions: HK-2, 1 day
Procedure: as §1

sproutin = assay: Intestinal sproutin mRNA in rats of ACD Series 2 (microarray); type: in vivo, rat
Procedure: At week 6 following administration of compound A in anemic animals (40 mg/kg, twice a week), microarray analysis was performed to examine expression of genes encoding proteins involved with iron transport and absorption in intestine. Microarray analysis was performed using methods described above, using The Rat Genome 230A array (Affymetirx), which represents all sequence in the Rat Unigene database build 99 (National Center for Biotechnology Information, Bethesda, Md.), including approximately 4,699 well-characterized rat genes and approximately 10,467 EST sequences and approximately 700 non-EST sequences.

EPO production [4] = assay: Secreted EPO (ELISA) in Hep3B cells treated with TNF-α; type: cell-based; conditions: for effect on suppression of EPO production by TNF-α: 2-hour pre-treatment with TNF-α, EPO 3 days after compound addition; for effect on inhibition of EPO production by TNF-α: compound in the presence of TNF-α (0.4-10 ng/ml); for effect on inhibition of EPO production by TNF-α / EPO production: 3 days; for EPO production: various concentrations of compound, absence of TNF-α
Procedure: (§2) Hep3B cells were treated with various concentrations (0, 0.4, 2, 10 ng/ml) of TNF-α in the absence or presence of compound A or compound B for 3 days. Secreted EPO levels were determined using a commercially available ELISA kit (R&D Systems, catalog no. DEP00). In the absence of compound, treatment of Hep3B cells with TNF-α reduced EPO production in a dose-dependent manner. […] Therefore, inhibitory effects of the inflammatory cytokine TNF-α on EPO production were overcome by inhibition of prolyl hydroxylase activity using compounds and methods of the present invention. […] Further, the methods and compounds of the present invention are useful to increase EPO production and, therefore, to treat anemia in a subject, for example, wherein the subject has a disorder associated with TNF-αQ such as acute or chronic inflammation or other anemia of chronic disease.
(§3) A series of experiments were performed to examine the effects of compounds of the present invention on EPO production following exposure of cells to the inflammatory cytokine TNF-α (i.e., in cells already exposed to TNF-α). In these experiments, TNF-α signaling would therefore be initiated prior to the addition of a prolyl hydroxylase inhibitor. Hep3B cells were treated with various concentrations (0, 0.4, 2, 10 ng/ml) of TNF-α for 2 hours, after which various concentrations of compound A or compound B were added to the cultured cells. Secreted EPO levels were determined as described above 3 days following compound addition.

NRAMP2 = NRAMP2 mRNA in small intestine of mice after IV administration (microarray); type: in vivo, mouse; conditions: 60 mg/kg IV, 4 hours
Procedure: In another experiment, mRNA was isolated from small intestine harvested 4 hours following IV administration of 60 mg/kg compound A, compound B, and compound C to mice. Probes were prepared from each of two animals from 5 treatment groups, and hybridized to Affymetrix mouse MOE430Aplus2 microarrays (one animal per array). Statistical comparisons of data obtained from arrays from treated versus non-treated animals was performed. […] Expression levels are shown as fold-induction over control, untreated animals for each expressed gene.

healthy human volunteers = assay: Erythropoiesis and iron status in healthy human volunteers; type: in vivo; conditions: human subjects; for soluble transferrin receptor levels, maximum response: day 21
Text: The effect of prolyl hydroxylase inhibition on erythropoiesis in human subjects was examined as follows. […] At various times following compound administration, blood was drawn for analysis of EPO, hemoglobin, hematocrit, red blood cell counts, soluble transferrin receptor, and serum ferritin levels.

EPO production [5] = assay: Secreted EPO (ELISA) in Hep3B cells treated with IL-6; type: cell-based; conditions: for effect of compound treatment on EPO production in the presence of IL-6: compound plus IL-6
Procedure: Secreted EPO levels were determined using a commercially available ELISA kit (R&D Systems, catalog no. DEP00). […] As shown in FIGS. 27A and 27B, Hep3B cells treated with IL-6 increased EPO expression slightly above that in non-treated cells. Specifically, EPO levels in control cells was approximately 20 mIU/ml, while that in cells treated with 10 ng/ml IL-6 was approximately 50 mIU/ml.

EPO production [6] = assay: Secreted EPO (ELISA) in Hep3B cells treated with IL-1β; type: cell-based; conditions: for effect on suppression of EPO production by IL-1β: 2-hour pre-treatment with IL-1β, EPO 3 days after compound addition; for effect on inhibition of EPO production by IL-1β: compound in the presence of IL-1β (0.4-10 ng/ml); for effect on inhibition of EPO production by IL-1β / EPO production: 3 days; for EPO production: various concentrations of compound, absence of IL-1β
Procedure: as §2, with “IL-1β” for “TNF-α”, “IL-1β” for “TNF-αQ”
as §3, with “IL-1β” for “TNF-α”, “IL-1β).” for “TNF-α).”

[7] = 10 µM compound, absence of IL-6
[8] = compound in the presence of 10 ng/ml IL-6

Row | SMILES | Mean FL (transferrin receptor) (transferrin receptor [1]) | Mean FL (transferrin receptor) (transferrin receptor [2]) | Mean FL (transferrin receptor) (transferrin receptor [3]) | effect on suppression of EPO production by TNF-α (EPO production [4]) | effect on inhibition of EPO production by TNF-α (EPO production [4]) | EPO production (EPO production [4]) | NRAMP2 mRNA expression in small intestine (NRAMP2) | EPO levels (EPO production [5]; [7]) | EPO levels (EPO production [5]; [8]) | effect of compound treatment on EPO production in the presence of IL-6 (EPO production [5]) | EPO levels (EPO production [5]; compound without IL-6) | effect on suppression of EPO production by IL-1β (EPO production [6]) | effect on inhibition of EPO production by IL-1β (EPO production [6]) | EPO production (EPO production [6]) | other results
1 | O=C(O)CNC(=O)c1nc(Cl)c2ccccc2c1O [Compound A, [(1-Chloro-4-hydroxy-isoquinoline-3-carbonyl)-amino]-acetic acid] | 56.52 | 40.89 | 12.20 | overcame the suppressive effects of TNF-α on EPO production | greatly reduced the inhibitory effects of TNF-α on EPO production | dose-dependent increase in EPO production | increasing expression of NRAMP2 in intestine | approximately 60 mIU/ml | approximately 270 mIU/ml | synergistic | increased EPO levels in a dose-dependent manner | overcame the suppressive effects of IL-1 on EPO production | greatly reduced the inhibitory effects of IL-1β on EPO production | dose-dependent increase in EPO production | intestinal expression of sproutin (sproutin; anemic rats, 40 mg/kg twice a week, week 6): increased expression of both NRAMP2 and sproutin in intestine; intestinal expression of mRNA for sproutin (sproutin; control rats): increased intestinal expression; red blood cell count (healthy human volunteers; 20 mg/kg twice weekly or three-times per week): increased red blood cell count in human subjects; soluble transferrin receptor levels, maximum response (healthy human volunteers; 2-times per week): 35%; soluble transferrin receptor levels, maximum response (healthy human volunteers; 3-times per week): 31%; decrease of serum ferritin levels (healthy human volunteers; oral 20 mg/kg): approximately 46%; Reticulocyte levels (healthy human volunteers; oral 20 mg/kg twice or three-times weekly): > 1.7 % of red blood cells; hematocrit levels (healthy human volunteers; twice weekly for three weeks): greater than 46%
2 | O=C(O)CNC(=O)c1ncc2cc(Oc3ccccc3)ccc2c1O [Compound B, [(4-Hydroxy-7-phenoxy-isoquinoline-3-carbonyl)-amino]-acetic acid] | 53.53 | 42.43 | 18.92 | overcame the suppressive effects of TNF-α on EPO production | greatly reduced the inhibitory effects of TNF-α on EPO production | dose-dependent increase in EPO production | increasing expression of NRAMP2 in intestine | ~220 mIU/ml | greater than 400 mIU/ml | synergistic | increased EPO levels in a dose-dependent manner | overcame the suppressive effects of IL-1 on EPO production | greatly reduced the inhibitory effects of IL-1β on EPO production | dose-dependent increase in EPO production | 
